Patent US20110207726A1, “Inhibitors of Human Cathepsin L, Cathepsin B, and Cathepsin S” (The Trustees of the University of Pennsylvania, priority 2008, published 2011)
Where two headings read alike, the source gives them in different places.

Assays:
human liver cathepsin L [1] = biological target: T1, human liver cathepsin L (Homo sapiens, UniProt P07711); test: Cathepsin L assay, IC50 determination; assay type: biochemical
T1 construct: 8.7 ng/mL human liver cathepsin L (Calbiochem 219402); purchased Calbiochem 219402; host or cells: human liver
Protocol: Assay buffer consisted of 20 mM sodium acetate, 1 mM ethylenediaminetetraacetic acid (EDTA) and 5 mM cysteine, pH 5.5. Cathepsin L was incubated in assay buffer for 30 minutes prior to dispensing into wells to allow for efficient reduction of the active site cysteine required for full enzymatic activity.
Upon activation, cathepsin L (300 pM, 8.7 ng/mL) was incubated with 1 microM Z-Phe-Arg-AMC substrate (Sigma C9521) and test compound in […] of assay buffer for 1 hour at room temperature.
All reactions were performed in 20 mM sodium acetate buffer containing 5 mM cysteine and 1 mM EDTA, pH 5.5. Reaction progress was monitored using the Envision microplate reader. IC50 values were measured in triplicate.

[2] = Stability in DMSO and cathepsin L assay buffer; assay type: physicochemical
Excerpt: Some variability in IC50 values determined for Compound (iii) prompted us to explore the stability of both Compound No. 1 and Compound (iii) in solvents relevant to the bioassay.

Human liver cathepsin B = biological target: T2, Human liver cathepsin B (Homo sapiens, UniProt P07858); test: Cathepsin B assay, IC50 determination; assay type: biochemical; conditions: for Selectivity Index (IC50 Cat B)/(IC50 Cat L): Cathepsin B vs cathepsin L
T2 construct: Human liver cathepsin B (Calbiochem 219362, 65 ng/mL); purchased Calbiochem 219362; host or cells: human liver
Protocol: (§1) Human spleen cathepsin S (Calbiochem 219344, 40 ng/mL) was assayed using 15 microM Z-Phe-Arg-AMC substrate. Human liver cathepsin B (Calbiochem 219362, 65 ng/mL) was assayed using 15 microM Z-Arg-Arg-AMC substrate (Bachem I-1135). All reactions were performed in 20 mM sodium acetate buffer containing 1 mM EDTA and 5 mM cysteine, pH 5.5.
(§2) Compounds were serially diluted in DMSO and transferred into a 96-well Corning 3686 assay microplate to give a 16-point two-fold serial dilution dose response ranging from 25 microM to 760 pM. Human liver cathepsin L (Calbiochem 219402) was activated by incubating with assay buffer for 30 min. Upon activation, cathepsin L (300 pM, 8.7 ng/mL) was incubated with 1 microM Z-Phe-Arg-AMC substrate (Sigma C9521) and test compound in […] of assay buffer for 1 hour at room temperature. Fluorescence of AMC released by enzyme-catalyzed hydrolysis of Z-Phe-Arg-AMC was read on a PerkinElmer Envision microplate reader (excitation 355 nm, emission 460 nm). Data were scaled using internal controls and fitted to a four-parameter logistic model (IDBS XLfit equation 205) to obtain IC50 values in triplicate.
(§3) Compound No. 1 was assayed for inhibition against papain and cathepsins B, G, K, S, and V. Papain from Carica papaya (Calbiochem 5125, 11 ng/mL), human cathepsin K (Calbiochem 342001, 35 ng/mL), human spleen cathepsin S (Calbiochem 219344, 40 ng/mL), and human cathepsin V (Calbiochem 219467, 39 ng/ml) were assayed using Z-Phe-Arg-AMC substrate at 20 μM, 20 μM, 15 μM, and 1 μM, respectively. Human liver cathepsin B (Calbiochem 219362, 65 ng/mL) was assayed using 15 μM Z-Arg-Arg-AMC substrate (Bachem I-1135). Human neutrophil cathepsin G (Calbiochem 219373, 4.2 μg/mL) was assayed using 15 μM Suc-Ala-Ala-Pro-Phe-AMC substrate (Sigma S9761). All reactions were performed in 20 mM sodium acetate buffer containing 5 mM cysteine and 1 mM EDTA, pH 5.5. Reaction progress was monitored using the Envision microplate reader. IC50 values were measured in triplicate.

Human spleen cathepsin S = biological target: T3, Human spleen cathepsin S (Homo sapiens, UniProt P25774); test: Cathepsin S assay, IC50 determination; assay type: biochemical; conditions: Tables 2-11; read-out: Cat S
T3 construct: Human spleen cathepsin S (Calbiochem 219344, 40 ng/mL); purchased Calbiochem 219344; host or cells: human spleen
Protocol: as §1, §2, §3

[3] = tested on: SARS coronavirus pseudotype; test: microbe, parasite or virus in culture; assay type: cell-based; conditions: read-out: IC50, SARS-CoV pseudotype entry
Ebola virus pseudotype = test: microbe, parasite or virus in culture; assay type: cell-based; conditions: read-out: IC50, Ebola virus pseudotype entry
[4] = tested on: Vesicular stomatitis virus (VSV); test: microbe, parasite or virus in culture; assay type: cell-based; conditions: read-out: IC50, VSV entry (control)
zebrafish = test: Zebrafish live organism toxicity assay; conditions: at 100 μM
human cathepsin L = human cathepsin L (Homo sapiens, UniProt P07711); test: Preincubation studies, cathepsin L; assay type: biochemical; set-up: 8.7 ng/mL human liver cathepsin L (Calbiochem 219402); purchased Calbiochem 219402; host or cells: human liver; conditions: preincubation with enzyme 4 h; read-out: IC50 against human cathepsin L after 4 hours preincubation
Protocol: To establish the time-dependent mechanism of inhibition, enzyme and inhibitor were preincubated for various time points in a 96-well microplate prior to the addition of substrate to initiate the enzymatic reaction. 47.5 μL of cathepsin L (18.3 ng/mL) and 47.5 μL of Compound No. 1 at various concentrations in assay buffer were incubated up to 4 hours. Five μL of Z-Phe-Arg-AMC substrate were then added and the plate was monitored for AMC hydrolysis on the Envision fluorescent microplate reader.

human liver cathepsin L [5] = biological target: T1, human liver cathepsin L; test: HTS of MLSMR library and confirmatory dose response against cathepsin L; assay type: biochemical; conditions: 10 μM compound
Protocol: 57,821 compounds from the NIH Molecular Libraries Small Molecule Repository (MLSMR) were screened against human liver cathepsin L. This screen was performed in 384-well Corning 3676 black, low-volume, non-binding surface (NBS)-coated polystyrene plates using a total reaction volume of 10 μL per well. Final well concentrations were: 10 μM compound (2% DMSO), 300 pM (8.7 ng/mL) human liver cathepsin L, 1 μM Z-FR-AMC substrate, and 20 mM sodium acetate buffer containing 1 mM EDTA and […], pH 5.5. Cathepsin L was activated in the assay buffer for 30 minutes prior to dispensing into wells. Assay plates were incubated at room temperature for one how and the fluorescence intensity of each well was read with a PerkinElmer Envision plate reader (Ex: 355 nm, Em: 460 nm) to measure hydrolysis of the AMC substrate.
Library samples containing 2,5-disubstituted oxadiazoles were identified as potent hits in a high throughput screen of the NIH Molecular Libraries Small Molecule Repository directed at discovering inhibitors of cathepsin L (Table I). […] Analyses by LC-MS of original library samples indicated the presence of a number of impurities, in addition to the oxadiazoles. Synthesis and bioassay of the probable impurities led to the identification of a thiocarbazate that likely originated via ring opening of the oxadiazole. […]

[6] = no preincubation of enzyme and inhibitor, read-out: IC50 against cathepsin L (no preincubation)

T1 sequence (P07711 114-288 limits assumed): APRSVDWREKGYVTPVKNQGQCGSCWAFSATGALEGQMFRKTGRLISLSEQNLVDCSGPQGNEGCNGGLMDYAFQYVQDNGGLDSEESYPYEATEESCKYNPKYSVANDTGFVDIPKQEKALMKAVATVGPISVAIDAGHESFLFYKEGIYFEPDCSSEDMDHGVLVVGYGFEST
T1 sequence (P07711 292-333 limits assumed): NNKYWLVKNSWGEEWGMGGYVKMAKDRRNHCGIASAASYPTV
T3 sequence (P25774 115-331): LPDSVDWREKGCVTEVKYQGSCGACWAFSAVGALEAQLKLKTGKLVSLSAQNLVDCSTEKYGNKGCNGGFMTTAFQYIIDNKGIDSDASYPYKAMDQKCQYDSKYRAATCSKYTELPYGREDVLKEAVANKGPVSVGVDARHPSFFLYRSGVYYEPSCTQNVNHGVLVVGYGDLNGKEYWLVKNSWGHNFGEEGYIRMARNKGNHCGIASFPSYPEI
Sequence of human cathepsin L (P07711 114-288 limits assumed): as the sequence (P07711 114-288 limits assumed) above
Sequence of human cathepsin L (P07711 292-333 limits assumed): as the sequence (P07711 292-333 limits assumed) above

| SMILES | IC50 (human liver cathepsin L [1]; Tables 2-11, read-out: Cat L) | IC50 (Human liver cathepsin B; Tables 2-11, read-out: Cat B) | IC50 (Human spleen cathepsin S) | also measured |
| --- | --- | --- | --- | --- |
| CCc1ccccc1NC(=O)CSC(=O)NNC(=O)[C@@H](N)Cc1c[nH]c2ccccc12 [Compound (iii)] | – | – | – | IC50 (human liver cathepsin L [1]; [6]): 0.133 µM; stability in DMSO [2]: unstable |
| CCOC(=O)NNC(=O)[C@H](Cc1c[nH]c2ccccc12)NC(=O)OC(C)(C)C [Compound No. 95] | ≥ 25 µM | ≥ 25 µM | ≥ 25 µM | – |
| CC(C)(C)OC(=O)N[C@@H](Cc1c[nH]c2ccccc12)C(=O)NNC(=O)OCC(=O)N1CCCc2ccccc21 [Compound No. 96] | 0.006 µM | 10.1 µM | 0.025 µM | Selectivity Index (human liver cathepsin L [1]; Table 18, Cathepsin L): 1.0; IC50 (human liver cathepsin L [1]; [6]): 0.0069 µM; Selectivity Index (IC50 Cat B)/(IC50 Cat L) (Human liver cathepsin B; no preincubation): 724.6; Selectivity Index (IC50 Cat B)/(IC50 Cat L) (Human liver cathepsin B; no preincubation, listed as SID 46493575): 725; IC50 (Human liver cathepsin B; Table 18, Cathepsin B, human liver, no preincubation, read-out: IC50): 5.07 ± 0.883 µM; IC50 ([3]; Severe acute respiratory syndrome coronavirus, HEK-293T): 0.273 ± 0.049 µM; IC50 [3]: ~0.2 µM; IC50 (Ebola virus pseudotype; Zaire ebolavirus, HEK-293T): 0.193 ± 0.039 µM; IC50 (Ebola virus pseudotype): ~0.2 µM; IC50 ([4]; Vesicular stomatitis virus): ≥ 10 µM; IC50 [4]: > 10 µM; toxicity to zebrafish (zebrafish): Non-toxic to zebrafish at 100 μM; IC50 (human cathepsin L): 0.0004 µM |
| CCc1ccccc1NC(=O)CCC(=O)NNC(=O)[C@H](Cc1c[nH]c2ccccc12)NC(=O)OC(C)(C)C [Compound No. 113] | ≥ 25 µM | ≥ 25 µM | ≥ 25 µM | – |
| O=C(CCc1c[nH]c2ccccc12)NNC(=O)CCc1c[nH]c2ccccc12 [Compound No. 114] | ≥ 25 µM | ≥ 25 µM | ≥ 25 µM | – |
| CC(C)(C)OC(=O)N[C@@H](Cc1c[nH]c2ccccc12)C(=O)NNC(=O)CCC(=O)N1CCCc2ccccc21 [Compound No. 115] | ≥ 25 µM | ≥ 25 µM | ≥ 25 µM | – |
| CSCC[C@H](NC(=O)OC(C)(C)C)C(=O)NNC(=O)c1ccccc1 [Compound No. 116] | ≥ 25 µM | ≥ 25 µM | ≥ 25 µM | – |
| CC(C)(C)OC(=O)N[C@@H](Cc1c[nH]c2ccccc12)C(=O)NNC(=O)[C@@H](Cc1c[nH]c2ccccc12)NC(=O)OC(C)(C)C [Compound No. 117] | ≥ 25 µM | ≥ 25 µM | ≥ 25 µM | – |
| CC(C)(C)OC(=O)N[C@@H](Cc1c[nH]c2ccccc12)C(=O)NN [Compound No. 118] | ≥ 25 µM | ≥ 25 µM | ≥ 25 µM | – |
| CC(C)(C)OC(=O)N[C@H](Cc1c[nH]c2ccccc12)C(=O)NN [Compound No. 119] | ≥ 25 µM | ≥ 25 µM | ≥ 25 µM | – |
| CC(C)(C)OC(=O)N[C@@H](Cc1c[nH]c2ccccc12)C(=O)NOCC(=O)N1CCCc2ccccc21 [Compound No. 120] | ≥ 25 µM | ≥ 25 µM | ≥ 25 µM | – |
| C/C=C(/C=O)[C@@H](CC=O)CC(=O)OCCc1ccc(O)cc1 [Compound No. 121] | ≥ 25 µM | ≥ 25 µM | ≥ 25 µM | – |
| Cc1ccc(S(=O)(=O)NNC(=O)[C@H](Cc2ccc(OC(=O)OC(C)(C)C)cc2)NC(=O)OC(C)(C)C)cc1 [Compound No. 122] | ≥ 25 µM | ≥ 25 µM | ≥ 25 µM | – |
| CC(C)(C)OC(=O)N[C@@H](Cc1c[nH]c2ccccc12)C(=O)N/N=C/c1ccccc1 [Compound No. 123] | ≥ 25 µM | ≥ 25 µM | ≥ 25 µM | – |
| CC(C)(C)OC(=O)N[C@@H](Cc1c[nH]c2ccccc12)C(=O)N/N=C/c1ccc(Cl)cc1 [Compound No. 124] | ≥ 25 µM | ≥ 25 µM | ≥ 25 µM | – |
| CC(C)(C)OC(=O)N[C@@H](Cc1c[nH]c2ccccc12)C(=O)NNC(=O)NCC(=O)N1CCCc2ccccc21 [Compound No. 125] | 2.34 µM | ≥ 25 µM | 13 µM | – |
| CSCC[C@H](NC(=O)OC(C)(C)C)C(=O)NNC(=S)SCC(=O)N1CCc2ccccc21 [Compound No. 126] | ≥ 25 µM | ≥ 25 µM | ≥ 25 µM | – |
| CC(C)(C)OC(=O)N[C@@H](Cc1ccc(OC(=O)OC(C)(C)C)cc1)C(=O)NNC(=O)C(=O)N1CCc2ccccc2C1 [Compound No. 127] | ≥ 25 µM | ≥ 25 µM | ≥ 25 µM | – |
| CC(C)C[C@H](NC(=O)[C@H]1O[C@@H]1C(=O)O)C(=O)NCCCCN=C(N)N [E-64] | – | – | – | HTS identification as cathepsin L inhibitor (in words) (human liver cathepsin L [5]): potent inhibitors of cathepsin L |
| CC(C)CCNC(=O)[C@H](CC(C)C)NC(=O)[C@H]1O[C@@H]1C(=O)O [E-64c] | – | – | – | HTS identification as cathepsin L inhibitor (in words) (human liver cathepsin L [5]): potent inhibitors of cathepsin L |
